# According to patent publication US9101588B2, “Composition for lowering blood uric acid level” (TAISHO PHARMACEUTICAL CO., LTD., priority 2009, dated 2015):
# Tests used:
# Assay type in all cases: in vivo, human
# [1] = test system: subjects thought to have lifestyle diseases; assay: Test Example 1: randomized double blind test, change in uric acid level, powder of Example 1 vs placebo, 14 days; conditions: for uric acid level degree changed MAX / uric acid level degree changed MEDIAN / uric acid level degree changed MIN / uric acid level degree changed MEAN: start to completion
# Experimental: Forty subjects who were 20 years old or older and thought to have lifestyle diseases under the following conditions were grouped into 2 each consisting of 20 subjects. A placebo and the powder prepared in Example 1 were administered to the respective groups twice a day by 2.04 g (2000 mg in terms of taurine amount) in a single dose for 14 days. The change in the uric acid level was checked by a randomized double blind test.
# Before this test was started, screening tests were conducted twice. Subjects who met all the conditions of Conditions 1 to 3 below in the first screening test were subjected to the second screening. Further, since the amount of taurine in the body seemed to influence the result of this test, subjects who met Condition 4 in addition to Conditions 1 to 3 in the second screening test were subjected to this test. In each administration group, the result was sub-grouped with a benchmark of the uric acid level of 7.0 mg/dL which served as the index for hyperuricemia. The uric acid levels were compared between the groups.
# Incidentally, one case which was assigned to the taurine-administered group was terminated because another disease occurred before the administration was started.
# Condition 1: LDL cholesterol was 140 mg/dL or above
# Condition 2: triglyceride was 150 mg/dL or above but below 400 mg/dL
# Condition 3: total cholesterol was 220 mg/dL or above
# Condition 4: an amount of urinary taurine excreted (in urine collected for 24 hours) was 1500 μmol or below
# In addition, each administration group was sub-grouped with a benchmark of the uric acid level of 7.0 mg/dL at the start, and the percentage of change in the uric acid level was compared in each group.
# [2] = test system: subjects thought to have hyperuricemia; assay: Test Example 3: randomized double blind test, serum uric acid level and uric acid clearance value, powder of Example 1 vs placebo, 14 days
# Experimental: Sixteen subjects who were 20 years old or older and thought to have hyperuricemia under the following conditions were grouped into 2 each consisting of 8 subjects. A placebo and the powder prepared in Example 1 were administered to the respective groups twice a day by 2.04 g (2000 mg in terms of taurine amount) in a single dose for 14 days. The change in the uric acid level was checked by a randomized double blind test.
# Before this test was started, screening tests were conducted twice. Subjects who met the condition of Condition below in the first screening test were subjected to the second screening. Subjects who met Condition again in the second screening test were subjected to this test. Furthermore, in this test, in order to check the change in a uric acid clearance value that would influence the change in the uric acid level, the uric acid level and the uric acid clearance value were measured four times, that is, 1 hour before administration, 1 hour after administration, 2 hours after administration, and 3 hours after administration when the taurine administration was started as well as similarly four times when the administration was completed. It should be noted that in order to make conditions equal between when the administration was started and when completed, the subjects were stayed in a hospital 3 days and 2 nights before each measurement, and had the same meals.
# Incidentally, one case which was assigned to the taurine-administered group was terminated because another disease occurred during the 14-day administration period.
# Condition: serum uric acid level was 7.0 mg/dL or above but below 9.0 mg/dL
# In addition, as in Test Examples 1 and 2, each administration group was sub-grouped with a benchmark of the uric acid level of 7.0 mg/dL at the start. The percentage of change in the uric acid level was compared in each group.
# Next, the change (ratio of change) in the uric acid clearance value, when the administration was started, representing uric acid-excretion efficiency was compared between the administration groups.
# Moreover, the change (ratio of change) in the uric acid clearance value when the administration was completed was also compared between the administration groups.
# [3] = test system: subjects of Test Examples 1 to 3; assay: Taurine-administered cases of Test Examples 1 to 3 summed, degree of uric acid level changed; conditions: for uric acid level degree changed MAX / uric acid level degree changed MEDIAN / uric acid level degree changed MIN / uric acid level degree changed MEAN: start to completion; for mean value of uric acid level decreased by / median of uric acid level decreased by: Table 6
# Experimental: Next, degrees of serum uric acid levels changed before and after the administration in the taurine-administered cases of Test Examples 1 to 3 were lined up in the order of subjects having higher levels before the administration.
# Moreover, the taurine-administered cases of Test Examples 1 to 3 were summed and sub-grouped with a benchmark of the uric acid level of 7.0 mg/dL at the start. Degrees of uric acid levels changed were compared between the sub-groups.
# [4] = test system: subjects thought to have hyperuricemia; assay: Test Example 3: randomized double blind test, serum uric acid level and uric acid clearance value, powder of Example 1 vs placebo, 14 days; conditions: 1 hour before administration at start vs 3 hours before administration at completion, 2000 mg taurine twice a day, FIG. 1
# [5] = start level 7.0 mg/dL or above, 8 cases
# [6] = start level 7.0 mg/dL or above, 8 cases, at completion (14 days)
# [7] = start level 7.0 mg/dL or above, 8 cases, at start
# [8] = start level below 7.0 mg/dL, 11 cases
# [9] = start level below 7.0 mg/dL, 11 cases, at completion (14 days)
# [10] = start level below 7.0 mg/dL, 11 cases, at start
# [11] = subjects with uric acid level 7.0 mg/dL or above, Table 1
# [12] = subjects with uric acid level below 7.0 mg/dL, Table 1
# [13] = start level 7.0 mg/dL or above, 4 cases
# [14] = start level below 7.0 mg/dL, 3 cases
# [15] = start level 7.0 mg/dL or above, 60 cases, at completion
# [16] = start level 7.0 mg/dL or above, 60 cases, at start
# [17] = start level 7.0 mg/dL or above, 60 cases
# [18] = start level below 7.0 mg/dL, 87 cases, at completion
# [19] = start level below 7.0 mg/dL, 87 cases, at start
# [20] = start level below 7.0 mg/dL, 87 cases
# [21] = subjects with uric acid level 7.0 mg/dL or above
# [22] = subjects with uric acid level below 7.0 mg/dL
smiles,measurement,setting,value
"NCCS(=O)(=O)O [Taurine, aminoethylsulfonic acid]",Change in uric acid level: subjects who did not show decrease,[1]; [5],0 (0.0) ( ): %
same,Change in uric acid level: subjects who showed decrease,[1]; [5],8 (100.0) ( ): %
same,uric acid level MAX,[1]; [6],8.3 mg/dL
same,uric acid level MEAN,[1]; [6],7.36 mg/dL
same,uric acid level MEDIAN,[1]; [6],7.50 mg/dL
same,uric acid level MIN,[1]; [6],6.4 mg/dL
same,uric acid level MAX,[1]; [7],9.1 mg/dL
same,uric acid level MEDIAN,[1]; [7],8.30 mg/dL
same,uric acid level MIN,[1]; [7],7.0 mg/dL
same,uric acid level MEAN,"[1]; start level 7.0 mg/dL or above, 8 cases, at start, 2000 mg taurine twice a day, 14 days",8.11 mg/dL
same,Change in uric acid level: subjects who showed decrease,"[1]; start level 7.0 mg/dL or above, 8 cases, listed as taurine",8 ( ): %
same,uric acid level degree changed MAX,[1]; [5],-0.3 mg/dL
same,uric acid level degree changed MEDIAN,[1]; [5],-0.70 mg/dL
same,uric acid level degree changed MIN,[1]; [5],-1.3 mg/dL
same,uric acid level degree changed MEAN,"[1]; start level 7.0 mg/dL or above, 8 cases, one-sample t-test P < 0.001",-0.75 mg/dL
same,"two-sample t-test estimation: difference in degree changed, taurine group vs placebo group","[1]; start level 7.0 mg/dL or above, 95% CI −1.42 to −0.15, P = 0.020",−0.78[−1.42 mg/dL
same,Change in uric acid level: subjects who did not show decrease,[1]; [8],6 (54.5) ( ): %
same,Change in uric acid level: subjects who showed decrease,[1]; [8],5 (45.5) ( ): %
same,uric acid level MAX,[1]; [9],6.5 mg/dL
same,uric acid level MEAN,[1]; [9],5.49 mg/dL
same,uric acid level MEDIAN,[1]; [9],5.9 mg/dL
same,uric acid level MIN,[1]; [9],1.1 mg/dL
same,uric acid level MAX,[1]; [10],6.8 mg/dL
same,uric acid level MEAN,[1]; [10],5.54 mg/dL
same,uric acid level MEDIAN,[1]; [10],5.9 mg/dL
same,uric acid level MIN,[1]; [10],0.8 mg/dL
same,uric acid level degree changed MAX,[1]; [8],0.5 mg/dL
same,uric acid level degree changed MEDIAN,[1]; [8],0.1 mg/dL
same,uric acid level degree changed MIN,[1]; [8],-0.9 mg/dL
same,uric acid level degree changed MEAN,"[1]; start level below 7.0 mg/dL, 11 cases, one-sample t-test P = 0.747",-0.05 mg/dL
same,"two-sample t-test estimation: difference in degree changed, taurine group vs placebo group","[1]; start level below 7.0 mg/dL, 95% CI −0.44 to 0.18, P = 0.386",−0.13[−0.44 mg/dL
same,mean value of uric acid level decreased by,[1]; [11],0.75 mg/dL
same,median of uric acid level decreased by,[1]; [11],0.70 mg/dL
same,mean value of uric acid level decreased by,[1]; [12],0.05 mg/dL
same,median of uric acid level increased by,[1]; [12],0.1 mg/dL
same,two-sample t-test estimation: difference in degree changed between sub-groups,"[1]; taurine group, 7.0 mg/dL or above vs below 7.0 mg/dL, 95% CI −1.09 to −0.31, P = 0.001",−0.70[−1.09 mg/dL
same,Change in uric acid level: subjects who did not show decrease,[2]; [13],0 (0.0) ( ): %
same,Change in uric acid level: subjects who showed decrease,[2]; [13],4 (100.0) ( ): %
same,Change in uric acid level: subjects who showed decrease,"[2]; start level 7.0 mg/dL or above, 4 cases, listed as taurine",4 ( ): %
same,Change in uric acid level: subjects who did not show decrease,[2]; [14],1 (33.3) ( ): %
same,Change in uric acid level: subjects who showed decrease,[2]; [14],2 (66.7) ( ): %
same,"uric acid clearance value, mean ratio of change (increase)","[2]; when the administration was completed, 2 hours after the administration, FIG. 3",≥ 30%
same,"uric acid clearance value, mean ratio of change (increase)","[2]; when the administration was completed, 3 hours after the administration, FIG. 3",≥ 20%
same,"uric acid clearance value, mean ratio of change (increase)","[2]; when the administration was started, 2 hours after the administration, FIG. 2",≥ 40%
same,"uric acid clearance value, mean ratio of change (increase)","[2]; when the administration was started, 3 hours after the administration, FIG. 2",≥ 30%
same,two-sample t-test estimation: difference in degree changed between sub-groups,"[3]; 7.0 mg/dL or above vs below 7.0 mg/dL, 95% CI −0.69 to −0.30, P < 0.001",−0.49[−0.69 mg/dL
same,uric acid level after oral administration (conclusion),[3]; results of Test Examples 1 to 3,significant decrease
same,uric acid level MAX,[3]; [15],10.6 mg/dL
same,uric acid level MEAN,[3]; [15],7.33 mg/dL
same,uric acid level MEDIAN,[3]; [15],7.35 mg/dL
same,uric acid level MIN,[3]; [15],4.6 mg/dL
same,uric acid level MAX,[3]; [16],10.8 mg/dL
same,uric acid level MEDIAN,[3]; [16],7.80 mg/dL
same,uric acid level MIN,[3]; [16],7.0 mg/dL
same,uric acid level MEAN,"[3]; start level 7.0 mg/dL or above, 60 cases, at start, Test Examples 1 to 3 summed",7.95 mg/dL
same,uric acid level degree changed MAX,[3]; [17],0.7 mg/dL
same,uric acid level degree changed MEDIAN,[3]; [17],-0.60 mg/dL
same,uric acid level degree changed MIN,[3]; [17],-2.6 mg/dL
same,uric acid level degree changed MEAN,"[3]; start level 7.0 mg/dL or above, 60 cases, one-sample t-test P < 0.001",-0.62 mg/dL
same,uric acid level MAX,[3]; [18],7.6 mg/dL
same,uric acid level MEAN,[3]; [18],5.54 mg/dL
same,uric acid level MEDIAN,[3]; [18],5.5 mg/dL
same,uric acid level MIN,[3]; [18],1.1 mg/dL
same,uric acid level MAX,[3]; [19],6.9 mg/dL
same,uric acid level MEAN,[3]; [19],5.67 mg/dL
same,uric acid level MEDIAN,[3]; [19],5.8 mg/dL
same,uric acid level MIN,[3]; [19],0.8 mg/dL
same,uric acid level degree changed MAX,[3]; [20],1.0 mg/dL
same,uric acid level degree changed MEDIAN,[3]; [20],-0.1 mg/dL
same,uric acid level degree changed MIN,[3]; [20],-1.6 mg/dL
same,uric acid level degree changed MEAN,"[3]; start level below 7.0 mg/dL, 87 cases, one-sample t-test P = 0.028",-0.13 mg/dL
same,mean value of uric acid level decreased by,[3]; [21],0.62 mg/dL
same,median of uric acid level decreased by,[3]; [21],0.60 mg/dL
same,mean value of uric acid level decreased by,[3]; [22],0.13 mg/dL
same,median of uric acid level decreased by,[3]; [22],0.1 mg/dL
same,mean value of serum uric acid level decreased by,[4],0.53 mg/dL
